# Data from the supplement of paper PMC10307832.
# Assays:
# Assay in all cases: relative viability (nuclei count vs DMSO), 5 days (fraction); higher = more cells survive
# [1] = test system: ABC-1
# In short: (§1)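 Relative viability equals treated-well nuclei counts divided by vehicle-well nuclei counts. Counts came from 4× images of lung cancer cell lines grown in 1536-well plates for 5 days after pin-tool dosing on the day after seeding. Dosing used one drug alone or a fixed anchor-drug dose plus five library-drug doses (not always all listed) in √10 steps, and values are medians of duplicate plates.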
# [2] = test system: COR-L23
# In short: as §1
# [3] = test system: ChaGo-K-1
# In short: as §1
# [4] = test system: EMC-BAC-2
# In short: as §1
# [5] = test system: HARA
# In short: as §1
# [6] = test system: HCC-15
# In short: as §1
# [7] = test system: HCC-366
# In short: as §1
# [8] = test system: HCC-78
# In short: as §1
# [9] = test system: HOP-62
# In short: as §1
# [10] = test system: LC-2-ad
# In short: as §1
# [11] = test system: NCI-H1395
# In short: as §1
# [12] = test system: NCI-H1793
# In short: as §1
# [13] = test system: NCI-H1944
# In short: as §1
# [14] = test system: NCI-H1993
# In short: as §1
# [15] = test system: NCI-H2023
# In short: as §1
# [16] = test system: NCI-H2126
# In short: as §1
# [17] = test system: NCI-H2228
# In short: as §1
# [18] = test system: NCI-H23
# In short: as §1
# [19] = test system: NCI-H2405
# In short: as §1
# [20] = test system: NCI-H358
# In short: as §1
# [21] = test system: NCI-H838
# In short: as §1
# [22] = test system: SK-LU-1
# In short: as §1
smiles,measurement,setting,value
O=c1cc(-c2cccc3c2Sc2ccccc2S3)oc(N2CCOCC2)c1 + O=C(c1cc(Cc2n[nH]c(=O)c3ccccc23)ccc1F)N1CCN(C(=O)C2CC2)CC1 [Olaparib] (partner 8 µM),relative viability,[1]; first compound 0.08 µM,0.821
same,relative viability,[1]; first compound 0.253 µM,0.718
same,relative viability,[1]; first compound 0.8 µM,0.735
same,relative viability,[1]; first compound 2.53 µM,0.777
same,relative viability,[1]; first compound 8 µM,0.75
same,relative viability,[2]; first compound 0.08 µM,0.35
same,relative viability,[2]; first compound 0.253 µM,0.395
same,relative viability,[2]; first compound 0.8 µM,0.351
same,relative viability,[2]; first compound 2.53 µM,0.362
same,relative viability,[2]; first compound 8 µM,0.351
same,relative viability,[3]; first compound 0.08 µM,0.503
same,relative viability,[3]; first compound 0.253 µM,0.494
same,relative viability,[3]; first compound 0.8 µM,0.415
same,relative viability,[3]; first compound 2.53 µM,0.466
same,relative viability,[3]; first compound 8 µM,0.411
same,relative viability,[4]; first compound 0.08 µM,0.523
same,relative viability,[4]; first compound 0.253 µM,0.568
same,relative viability,[4]; first compound 0.8 µM,0.518
same,relative viability,[4]; first compound 2.53 µM,0.571
same,relative viability,[4]; first compound 8 µM,0.514
same,relative viability,[5]; first compound 0.08 µM,1.13
same,relative viability,[5]; first compound 0.253 µM,0.711
same,relative viability,[5]; first compound 0.8 µM,0.774
same,relative viability,[5]; first compound 2.53 µM,0.629
same,relative viability,[5]; first compound 8 µM,0.777
same,relative viability,[6]; first compound 0.08 µM,0.756
same,relative viability,[6]; first compound 0.253 µM,0.772
same,relative viability,[6]; first compound 0.8 µM,0.707
same,relative viability,[6]; first compound 2.53 µM,0.654
same,relative viability,[6]; first compound 8 µM,0.485
same,relative viability,[7]; first compound 0.08 µM,0.421
same,relative viability,[7]; first compound 0.253 µM,0.507
same,relative viability,[7]; first compound 0.8 µM,0.406
same,relative viability,[7]; first compound 2.53 µM,0.483
same,relative viability,[7]; first compound 8 µM,0.357
same,relative viability,[8]; first compound 0.08 µM,0.792
same,relative viability,[8]; first compound 0.253 µM,0.853
same,relative viability,[8]; first compound 0.8 µM,0.935
same,relative viability,[8]; first compound 2.53 µM,0.839
same,relative viability,[8]; first compound 8 µM,0.734
same,relative viability,[9]; first compound 0.08 µM,0.374
same,relative viability,[9]; first compound 0.253 µM,0.52
same,relative viability,[9]; first compound 0.8 µM,0.543
same,relative viability,[9]; first compound 2.53 µM,0.49
same,relative viability,[9]; first compound 8 µM,0.576
same,relative viability,[10]; first compound 0.08 µM,0.791
same,relative viability,[10]; first compound 0.253 µM,0.83
same,relative viability,[10]; first compound 0.8 µM,0.713
same,relative viability,[10]; first compound 2.53 µM,0.649
same,relative viability,[10]; first compound 8 µM,0.64
same,relative viability,[11]; first compound 0.08 µM,0.404
same,relative viability,[11]; first compound 0.253 µM,0.416
same,relative viability,[11]; first compound 0.8 µM,0.513
same,relative viability,[11]; first compound 2.53 µM,0.471
same,relative viability,[11]; first compound 8 µM,0.47
same,relative viability,[12]; first compound 0.08 µM,0.815
same,relative viability,[12]; first compound 0.253 µM,1.08
same,relative viability,[12]; first compound 0.8 µM,0.899
same,relative viability,[12]; first compound 2.53 µM,0.721
same,relative viability,[12]; first compound 8 µM,0.63
same,relative viability,[13]; first compound 0.08 µM,0.401
same,relative viability,[13]; first compound 0.253 µM,0.401
same,relative viability,[13]; first compound 0.8 µM,0.414
same,relative viability,[13]; first compound 2.53 µM,0.43
same,relative viability,[13]; first compound 8 µM,0.397
same,relative viability,[14]; first compound 0.08 µM,1.05
same,relative viability,[14]; first compound 0.253 µM,1.1
same,relative viability,[14]; first compound 0.8 µM,0.986
same,relative viability,[14]; first compound 2.53 µM,0.965
same,relative viability,[14]; first compound 8 µM,1.12
same,relative viability,[15]; first compound 0.08 µM,0.445
same,relative viability,[15]; first compound 0.253 µM,0.513
same,relative viability,[15]; first compound 0.8 µM,0.435
same,relative viability,[15]; first compound 2.53 µM,0.345
same,relative viability,[15]; first compound 8 µM,0.348
same,relative viability,[16]; first compound 0.08 µM,1.06
same,relative viability,[16]; first compound 0.253 µM,0.991
same,relative viability,[16]; first compound 0.8 µM,1.01
same,relative viability,[16]; first compound 2.53 µM,0.9
same,relative viability,[16]; first compound 8 µM,0.91
same,relative viability,[17]; first compound 0.08 µM,0.691
same,relative viability,[17]; first compound 0.253 µM,0.869
same,relative viability,[17]; first compound 0.8 µM,0.799
same,relative viability,[17]; first compound 2.53 µM,0.83
same,relative viability,[17]; first compound 8 µM,0.733
same,relative viability,[18]; first compound 0.08 µM,0.313
same,relative viability,[18]; first compound 0.253 µM,0.309
same,relative viability,[18]; first compound 0.8 µM,0.24
same,relative viability,[18]; first compound 2.53 µM,0.269
same,relative viability,[18]; first compound 8 µM,0.268
same,relative viability,[19]; first compound 0.08 µM,0.861
same,relative viability,[19]; first compound 0.253 µM,1.04
same,relative viability,[19]; first compound 0.8 µM,0.791
same,relative viability,[19]; first compound 2.53 µM,0.8
same,relative viability,[19]; first compound 8 µM,0.936
same,relative viability,[20]; first compound 0.08 µM,0.636
same,relative viability,[20]; first compound 0.253 µM,0.676
same,relative viability,[20]; first compound 0.8 µM,0.589
same,relative viability,[20]; first compound 2.53 µM,0.64
same,relative viability,[20]; first compound 8 µM,0.719
same,relative viability,[21]; first compound 0.08 µM,0.9
same,relative viability,[21]; first compound 0.253 µM,1.1
same,relative viability,[21]; first compound 0.8 µM,0.752
same,relative viability,[21]; first compound 2.53 µM,0.715
same,relative viability,[21]; first compound 8 µM,0.546
same,relative viability,[22]; first compound 0.08 µM,0.582
same,relative viability,[22]; first compound 0.253 µM,0.713
same,relative viability,[22]; first compound 0.8 µM,0.524
same,relative viability,[22]; first compound 2.53 µM,0.503
same,relative viability,[22]; first compound 8 µM,0.463
